Drawing on article PMC5760849 (2017), this text covers binding and ΔTm for three compounds.

Some results are limits rather than exact numbers.

The test system of assay [1] is (G4C2)4 RNA (CD) (RNA, G4) GGGGCCGGGGCCGGGGCCGGGGCC
The assay can be described thus: CD, induced signal 350–550 nm. The note with it: Na+ (10 mM sodium cacodylate); pH 7.35; RNA 1 μM; compound 2 μM.

Assay [2] concerns (G4C2)4 RNA G-Q, dual-labelled (RNA, G4) GGGGCCGGGGCCGGGGCCGGGGCC
The assay is described as follows: FRET melting. The note with it: Na+ (10 mM sodium cacodylate); pH 7.35; compound 2 μM; screening threshold, exact value only in figure.

The ΔTm is the shift of the melting midpoint relative to a reference. As for `N=C(N)c1ccc(-c2ccc(-c3ccc(-c4ccc(C(=N)N)cn4)s3)s2)nc1`, the binding result in assay [1] is recorded as “yes”. In assay [2], the ΔTm is over 13 °C.
For the compound `N=C(N)c1ccc(-c2ccc(-c3ccc(-c4ccc(C(=N)N)cn4)[se]3)[se]2)nc1`, the binding entry in assay [1] was “yes”. Also, the ΔTm in assay [2] was over 13 °C.
For `N=C(N)c1ccc(-c2ccc(-c3ccc(-c4ccc(C(=N)N)cn4)o3)o2)nc1`, in that order: “yes” and over 13 °C.
